Experimental data reported in ChEMBL document CHEMBL4041492 (Eur J Med Chem, 2017).

Legend:
Adenosine receptor A1 [1] = target: T1, Adenosine receptor A1 (Rattus norvegicus, UniProt P25099); assay: Displacement of [3H]DPCPX from adenosine receptor A1 in rat brain membrane; format: cell membranes
T1 sequence (P25099 whole entry): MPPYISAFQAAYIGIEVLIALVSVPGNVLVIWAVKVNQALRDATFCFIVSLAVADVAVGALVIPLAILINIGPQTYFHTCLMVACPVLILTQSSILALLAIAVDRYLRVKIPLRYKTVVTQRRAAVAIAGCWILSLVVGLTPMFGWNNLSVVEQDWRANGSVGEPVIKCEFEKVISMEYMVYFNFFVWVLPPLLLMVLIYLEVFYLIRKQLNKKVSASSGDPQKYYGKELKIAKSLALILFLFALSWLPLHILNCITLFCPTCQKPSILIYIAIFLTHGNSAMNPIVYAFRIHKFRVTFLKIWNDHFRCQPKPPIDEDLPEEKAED

Adenosine receptor A2a = Adenosine receptor A2a (Rattus norvegicus, UniProt P30543); assay: Displacement of [3H]NECA from adenosine receptor A2a in rat striatial membrane; format: cell membranes
Sequence of Adenosine receptor A2a (P30543 whole entry): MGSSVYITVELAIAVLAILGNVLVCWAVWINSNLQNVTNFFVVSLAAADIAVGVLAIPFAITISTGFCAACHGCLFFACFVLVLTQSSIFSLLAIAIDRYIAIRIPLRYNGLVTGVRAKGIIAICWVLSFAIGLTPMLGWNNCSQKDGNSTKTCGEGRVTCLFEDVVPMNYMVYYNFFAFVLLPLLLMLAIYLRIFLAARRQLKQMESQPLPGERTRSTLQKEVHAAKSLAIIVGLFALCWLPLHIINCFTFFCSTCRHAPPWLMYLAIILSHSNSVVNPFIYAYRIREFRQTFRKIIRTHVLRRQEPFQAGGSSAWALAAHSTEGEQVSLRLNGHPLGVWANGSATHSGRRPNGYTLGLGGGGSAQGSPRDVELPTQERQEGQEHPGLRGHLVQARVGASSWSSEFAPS

Rattus norvegicus [2] = organism: Rattus norvegicus; assay: Selectivity index, ratio of Ki for adenosine receptor A1 in rat brain membrane to Ki for adenosine receptor A2a in rat striatal membrane; format: cell membranes
Rattus norvegicus [3] = organism: Rattus norvegicus; assay: Selectivity index, ratio of Ki for adenosine receptor A2a in rat striatal membrane to Ki for adenosine receptor A1 in rat brain membrane; format: cell membranes
Adenosine receptor A1 [4] = target: T1, Adenosine receptor A1; assay: Displacement of [3H]DPCPX from adenosine receptor A1 in rat brain membrane in presence of GTP by GTP shift assay; format: cell membranes
[5] = target: T2, Adenosine receptor A1 (Rattus norvegicus) (UniProt P25099); assay: Ratio of Ki for adenosine receptor A1 in rat brain membrane in presence of GTP to Ki for adenosine receptor A1 in rat brain membrane in absence of GTP; format: cell membranes
T2 sequence (whole entry): T1 sequence (P25099 whole entry)

[6] = Antagonist activity at adenosine receptor A2a in [3H]adenine-labeled guinea pig cerebral cortical slices assessed as inhibition of 2-chloroadenosine-stimulated [3H]-cAMP accumulation; parameters: species or system Cavia porcellus

Row | SMILES | Ki (Adenosine receptor A1 [1]) [µM] | Ki (Adenosine receptor A2a) [µM] | Ratio Ki (Rattus norvegicus [2]) | Ratio Ki (Rattus norvegicus [3]) | Ki (Adenosine receptor A1 [4]) [µM] | Ratio Ki [5] | Ki [6] [µM]
1 | Cn1c(=O)c2c(nc(SCc3ccccc3)n2C)n(C)c1=O | 4.32 | 4.64 | 0.9 | 1.1 | – | – | –
2 | Cn1c(=O)c2c(nc(COc3ccccc3)n2C)n(C)c1=O | – | – | 1.3 | 0.8 | 4.01 | 1.3 | –
3 | Cn1c(=O)c2c(nc(CSc3ccccc3)n2C)n(C)c1=O | 4.85 | 3.33 | 1.5 | 0.8 | – | – | –
4 | Cn1c(=O)c2c(nc(CCc3ccccc3)n2C)n(C)c1=O | – | – | 1.2 | 0.9 | – | – | –
5 | Cn1c(=O)c2c(nc(OCc3ccc(Cl)cc3)n2C)n(C)c1=O | 17.4 | 3.31 | 5.3 | 0.2 | – | – | –
6 | Cn1c(=O)c2c(nc(NCc3ccccc3)n2C)n(C)c1=O | 7.95 | 4.5 | 1.8 | 0.6 | – | – | –
7 | Cn1c(=O)c2c(nc(OCc3ccccc3)n2C)n(C)c1=O | 1.52 | 4.3 | 0.4 | 2.8 | 1.93 | 1.2 | –
8 | Cn1c(=O)c2c(nc(CSc3ccc(Cl)cc3)n2C)n(C)c1=O | 20.8 | 1.5 | 13.9 | 0.1 | – | – | –
9 | Cn1c(=O)c2c(ncn2C)n(C)c1=O [CAFFEINE] | – | – | – | – | – | – | 50
10 | Cn1c(=O)c2c(nc(COc3ccc(Cl)cc3)n2C)n(C)c1=O | 7.6 | 1.33 | 5.7 | 0.2 | – | – | –
11 | Cn1c(=O)c2c(nc(SCc3ccc(Cl)cc3)n2C)n(C)c1=O | 90 | 51.4 | 1.8 | 0.6 | – | – | –
